# In patent US6863898B2, “Method and composition for treating hairy hoof warts” (priority 2002, dated 2005):
# Tested on: hairy hoof warts
# Experiment: Footwrap application of aspirin compositions to infected hoofs of cows with hairy hoof warts
# Type: in vivo
# Details: topical; for healing of hairy hoof wart infections (result in words): 23 cubic centimeters in a footwrap left on the hoof about fourteen days
# Experimental: In testing the method of the subject invention on cows with hairy hoof warts, an aspirin composition (100% aspirin powder) was administered to the infected hoof by incorporating the aspirin into a conventional footwrap and wrapping the footwrap about an animal's hoof so that the aspirin was applied to an infected area of an animal's hoof. The aspirin composition of the subject invention that includes about 75% by weight aspirin powder, about 5% by weight hydrated lime, about 15% by weight sodium bentonite, and about 5% by weight chalk was also tested in the same manner. With the application of the aspirin compositions to the infected hoof areas by this method, the infection progressively diminished and the hairy hoof warts were typically healed within about fourteen days. In the method of the subject invention for treating anchor preventing hairy hoof warts, an aspirin composition of 100% aspirin, a composition of another compound or derivative of salicylic acid of 100% of the other compound or derivative, an aspirin containing composition, or a composition containing another compound or derivative of salicylic acid is administered in an effective amount to an infected area of an animal's hoof or, as a preventive measure, to an area of an animal's hoof that could be infected. In a preferred embodiment of the method of the subject invention, the composition of or containing aspirin or another compound or derivative of salicylic acid is incorporated into a conventional footwrap, such as but not limited to a footwrap sold by Minnesota Mining and Manufacturing under the trade designation “[…]”. The footwrap is then applied to an animal's hoof with the composition being applied to the infected area of the hoof or, as a preventive measure, to an area of potential hoof infection. […]
smiles,measurement,setting,value
"CC(=O)Oc1ccccc1C(=O)O [100% aspirin powder, aspirin]",healing of hairy hoof wart infections (result in words),listed as 100% powdered aspirin composition,successful in healing even severe hairy hoof wart infections
same,healing of hairy hoof wart infections (result in words),listed as aspirin composition of 100% aspirin,appeared to achieve the best results
same,time until the hairy hoof warts were healed,"composition in a conventional footwrap on the infected hoof area, typical value",fourteen
